Test results from publication PMC10289334 (PLOS ONE, 2023).

How the values were obtained:
MtFBPaseII = molecular target: T1, MtFBPaseII (Mycobacterium tuberculosis, UniProt P9WN21); assay type: binding
T1 construct: gene glpX; wild type; tetramer

FtFBPaseII = molecular target: T2, FtFBPaseII (Francisella tularensis, UniProt Q5NEJ8); settings: low (suboptimal) Mn2+; active site of chain C
T2 construct: gene gplX

[1] = molecular target: Francisella tularensis class II fructose-1,6-bisphosphatase (FtFBPaseII), wild type (Francisella tularensis); experiment: crystal structure
crystal structure = molecular target: the molecule itself; experiment: crystal structure

O=P(O)(O)OC[C@H]1OC(O)(COP(=O)(O)O)[C@@H](O)[C@@H]1O (stereo partly shown) [F1,6BP]
X-ray crystal structure (Form C, 3.7 A) (MtFBPaseII): The final refined structure confirmed the presence of the F1,6BP substrate in both chains | X-ray crystal structure (Form E, 2.2 A) (FtFBPaseII): could be interpreted as what appeared to be a substrate molecule bound

Francisella tularensis class II fructose-1,6-bisphosphatase (FtFBPaseII), wild type (enzyme)
stoichiometry N [1]: 4

B1: Mycobacterium tuberculosis class II fructose-1,6-bisphosphatase (MtFBPaseII), wild type (enzyme)
chain: MELVRVTEAGAMAAGRWVGRGDKEGGDGAAVDAMRELVNSVSMRGVVVIGEGEKDHAPMLYNGEEVGNGDGPECDFAVDPIDGTTLMSKGMTNAISVLAVADRGTMFDPSAVFYMNKIAVGPDAAHVLDITAPISENIRAVAKVKDLSVRDMTVCILDRPRHAQLIHDVRATGARIRLITDGDVAGAISACRPHSGTDLLAGIGGTPEGIIAAAAIRCMGGAIQAQLAPRDDAERRKALEAGYDLNQVLTTEDLVSGENVFFCATGVTDGDLLKGVRYYPGGCTTHSIVMRSKSGTVRMIEAYHRLSKLNEYSAIDFTGDSSAVYPLP
notes: also called Mt(Mg^2+)FBPaseII
stoichiometry N (crystal structure): 4
